Test results from publication PMC4829233, “Identification of Novel Chemical Scaffolds Inhibiting Trypanothione Synthetase from Pathogenic Trypanosomatids” (PLoS Neglected Tropical Diseases, 2016).
Several values for one entry are separate records, joined by “and”; a condition that tells them apart may be missing. Equal values may be shown once. Read-outs that look alike come from different tables or passages of the source.

Tests used:
Assay in all cases: biochemical
[1] = biological target: TcTryS (Trypanosoma cruzi trypanothione synthetase) (Trypanosoma cruzi, UniProt Q9GT49); format: biochemical; details: for remaining activity at 30 µM: read-out: TcTryS Activity ± 2σn-1 (%); for inhibition at 30 µM: read-out: % TcTryS inhibition ± 2σn-1
Sequence of TcTryS (Trypanosoma cruzi trypanothione synthetase) (Q9GT49 whole entry): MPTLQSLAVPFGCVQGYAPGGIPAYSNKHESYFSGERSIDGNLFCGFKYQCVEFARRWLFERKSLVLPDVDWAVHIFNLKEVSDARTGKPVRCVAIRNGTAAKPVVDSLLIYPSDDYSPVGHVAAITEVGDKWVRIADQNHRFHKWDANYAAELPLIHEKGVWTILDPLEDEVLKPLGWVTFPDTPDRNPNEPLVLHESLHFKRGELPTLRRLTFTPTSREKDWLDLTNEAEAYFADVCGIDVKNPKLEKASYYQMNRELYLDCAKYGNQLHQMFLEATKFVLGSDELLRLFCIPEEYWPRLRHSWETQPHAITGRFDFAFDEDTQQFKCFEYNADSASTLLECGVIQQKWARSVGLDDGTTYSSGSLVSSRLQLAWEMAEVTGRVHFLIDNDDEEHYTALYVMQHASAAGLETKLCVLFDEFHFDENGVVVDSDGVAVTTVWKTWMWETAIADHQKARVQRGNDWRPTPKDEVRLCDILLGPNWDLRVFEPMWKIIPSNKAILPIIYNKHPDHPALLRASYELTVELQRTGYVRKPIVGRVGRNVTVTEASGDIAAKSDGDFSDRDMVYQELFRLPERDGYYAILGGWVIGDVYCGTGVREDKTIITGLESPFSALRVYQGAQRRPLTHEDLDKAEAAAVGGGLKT

[2] = biological target: LiTryS (Leishmania infantum trypanothione synthetase) (Leishmania infantum, UniProt A4I2Z3); format: biochemical; details: for activity at 30 µM: read-out: LiTryS Activity ± 2σn-1 (%); for inhibition at 30 µM: read-out: % LiTryS inhibition ± 2σn-1
Sequence of LiTryS (Leishmania infantum trypanothione synthetase) (A4I2Z3 1-652): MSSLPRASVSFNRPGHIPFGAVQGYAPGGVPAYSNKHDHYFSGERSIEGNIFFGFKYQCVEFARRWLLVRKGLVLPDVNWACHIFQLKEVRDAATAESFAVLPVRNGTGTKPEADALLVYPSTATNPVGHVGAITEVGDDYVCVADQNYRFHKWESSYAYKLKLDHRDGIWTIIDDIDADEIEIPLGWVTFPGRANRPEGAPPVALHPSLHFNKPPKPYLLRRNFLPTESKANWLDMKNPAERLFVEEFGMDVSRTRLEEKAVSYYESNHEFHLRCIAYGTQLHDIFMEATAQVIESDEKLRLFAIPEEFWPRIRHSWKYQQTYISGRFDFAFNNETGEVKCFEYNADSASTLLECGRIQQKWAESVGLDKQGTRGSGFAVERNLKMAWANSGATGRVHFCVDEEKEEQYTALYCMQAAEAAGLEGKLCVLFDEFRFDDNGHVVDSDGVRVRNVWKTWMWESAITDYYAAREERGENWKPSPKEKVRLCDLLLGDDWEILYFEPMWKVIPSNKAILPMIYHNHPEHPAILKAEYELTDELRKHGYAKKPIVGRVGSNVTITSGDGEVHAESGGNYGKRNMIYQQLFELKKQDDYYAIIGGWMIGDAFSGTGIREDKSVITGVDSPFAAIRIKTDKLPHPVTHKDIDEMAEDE

[3] = biological target: TbTryS (Trypanosoma brucei trypanothione synthetase) (Trypanosoma brucei brucei, UniProt Q8IEX1); details: for activity at 30 µM: read-out: TbTryS Activity ± 2σn-1 (%)
Sequence of TbTryS (Trypanosoma brucei trypanothione synthetase) (Q8IEX1 1-627): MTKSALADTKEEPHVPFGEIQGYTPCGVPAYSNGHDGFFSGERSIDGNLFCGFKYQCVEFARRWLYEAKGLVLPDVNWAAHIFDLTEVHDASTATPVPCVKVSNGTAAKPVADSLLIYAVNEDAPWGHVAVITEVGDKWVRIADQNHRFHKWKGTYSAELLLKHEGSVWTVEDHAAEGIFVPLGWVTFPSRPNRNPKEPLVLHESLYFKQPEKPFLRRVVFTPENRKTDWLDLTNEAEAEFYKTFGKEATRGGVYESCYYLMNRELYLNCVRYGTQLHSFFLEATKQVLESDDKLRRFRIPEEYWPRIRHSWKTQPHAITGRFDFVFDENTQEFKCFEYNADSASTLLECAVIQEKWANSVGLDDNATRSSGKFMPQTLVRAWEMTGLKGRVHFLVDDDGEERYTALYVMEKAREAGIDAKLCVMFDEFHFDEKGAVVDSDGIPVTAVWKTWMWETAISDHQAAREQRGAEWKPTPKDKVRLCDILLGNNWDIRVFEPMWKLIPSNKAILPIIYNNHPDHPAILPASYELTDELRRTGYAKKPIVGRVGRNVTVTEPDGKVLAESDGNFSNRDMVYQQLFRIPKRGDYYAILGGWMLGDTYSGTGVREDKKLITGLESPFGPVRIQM

Structure (SMILES) | TcTryS Activity ± 2σn-1 (%) [1] | LiTryS Activity ± 2σn-1 (%) [2] | TbTryS Activity ± 2σn-1 (%) [3] | also measured
Cn1c(=O)c2c(nc(N/N=C\c3ccc(O)cc3O)n2CC(O)COc2ccccc2)n(C)c1=O (centres unmarked) [TC227, (Z)-8-(2-(2,4-dihydroxybenzylidene)hydrazinyl)-7-(2-hydroxy-3-phenoxypropyl)-1,3-dimethyl-1H-purine-2,6(3H,7H)-dione] | 161.6 ± 5.3; 3 (0.98) % | – | – | % TryS activity (TcTryS) [1]: 1.1 ± 3.1; 4% and 0.2 ± 3.1; 4% and 1.1 ± 2.1; 4%; remaining activity at 30 µM [1]: 162%; activity at 30 µM [2]: 88.5 ± 7.1%; activity at 30 µM [3]: 102 ± 2.3%
COc1ccc(CNCCCCCCCCCCNCc2ccc(OC)cc2)cc1 [APC1-115] | 76.1 ± 2.5; 4% | 79.8 ± 2.3; 3% | 69.0 ± 6.3; 3% | –
COc1cc2no[n+]([O-])c2cc1OC [Compound J32] | 98.1 ± 6.4; 4% | 72.7 ± 7.2; 4% | 93.4 ± 4.5; 4% | –
Fc1ccc(CNCCCCCCCCCCNCc2ccc(F)cc2)cc1 [EAP1-51] | 87.5 ± 4.6; 4% | 80.6 ± 2.7; 4% | 81.0 ± 7.5; 3% | –
c1ccc(COc2ccc(CNCCCCCCNCc3ccc(OCc4ccccc4)cc3)cc2)cc1 [APC1-99] | – | – | – | inhibition at 30 µM [1]: 33.4 ± 4.1%; remaining activity at 30 µM [1]: 66.6%; IC50 [3]: ~30 µM
c1ccc(COc2ccc(CNCCCNCc3ccc(OCc4ccccc4)cc3)cc2)cc1 [APC1-71B] | 99.0 ± 19.1; 2% | 80.8 ± 8.7; 3% | 66.0 ± 0.7; 3% | –
COc1ccc2nc(N3C(=O)C(O)=C(C(=O)c4ccc5c(c4)OCCO5)C3c3ccc(O)c(OC)c3)sc2c1 (centres unmarked) [ADMRC156] | 102.2 ± 8.8; 4% | 79.4 ± 4.6; 4% | 108.1 ± 6.5; 3% | –
Brc1ccc(CNCCCCCCCCNCc2ccc(Br)cc2)cc1 [EAP1-46] | 93.7 ± 7.6; 3% | 61.8 ± 3.9; 3% | 73.4 ± 1.7; 3% | –
COc1cc(CNCCCCCCCCCCNCc2ccc(OCc3ccccc3)c(OC)c2)ccc1OCc1ccccc1 [APC1-119] | 101.5 ± 1.9; 4 (1.18) % | 78.1 ± 9.8; 6 (1.219) % | 55.5 ± 1.8. 3 (1.11) % | –
COc1ccc2nc(N3C(=O)C(O)=C(C(=O)c4ccc5c(c4)OCCO5)C3c3ccc(OC)c(OC)c3)sc2c1 (centres unmarked) [ADMRC155] | 104.0 ± 6.6; 4% | 89.3 ± 7.4; 3% | 97.5 ± 3.4; 3% | –
Clc1ccc(CNCCCCCCCCCCCCNCc2ccc(Cl)cc2)cc1 [EAP1-67] | 76.2 ± 6.6; 4 (1.34) % | – | 57.6 ± 1.6; 4 (1.33) % | % TcTryS inhibition ± 2σn-1 [1]: 23.8 ± 6.6%; (1.34); IC50 ([2]; read-out: LiTryS IC50 (estimated)): ~30 µM; % TbTryS inhibition ± 2σn-1 [3]: 42.4 ± 1.6%; (1.33)
COc1ccc(C(=O)C2=C(O)C(=O)N(c3nc4ccc(Cl)cc4s3)C2c2ccc(F)cc2)cc1OC (centres unmarked) [ADPKN164] | 99.6 ± 5.7; 4% | – | – | remaining activity at 30 µM [1]: 99.6 ± 5.7%; inhibition at 30 µM [2]: ~35%; activity at 30 µM [2]: 66 ± 3.4%; TbTryS Activity ± 2σn-1 (%) ([3]; 30 µM): 123.2 ± 7.0; 4 (0.83) %; activity at 30 µM [3]: 123%
[O-][n+]1onc2cc(C(F)(F)F)ccc21 [Compound J25] | 81.8 ± 2.2; 3% | 110.7 ± 2.4; 3% | 98.4 ± 4.2; 3% | –
COc1ccc(C2C(C(=O)c3ccc4c(c3)OCCO4)=C(O)C(=O)N2c2nc3ccc(OC)cc3s2)cc1 (centres unmarked) [ADPKN160] | 97.6 ± 3.7; 4% | – | – | remaining activity at 30 µM [1]: 97.6 ± 3.7%; activity at 30 µM [2]: 77.9 ± 3.6%; TbTryS Activity ± 2σn-1 (%) ([3]; 30 µM): 116.4 ± 4.2; 4 (0.87) %; activity at 30 µM [3]: 116%
O=C(C1=C(O)C(=O)N(c2nc3ccc(Cl)cc3s2)C1c1ccc(F)cc1)c1ccc2c(c1)OCCO2 (centres unmarked) [ADMRC150] | 81.2 ± 4.1; 4% | 63.0 ± 6.8; 7% | 101.4 ± 8.2; 12% | % LiTryS inhibition ± 2σn-1 [2]: ~35%
COc1cc(C2C(C(=O)c3ccc4c(c3)OCCO4)=C(O)C(=O)N2c2nc3ccc(C)cc3s2)ccc1O (centres unmarked) [ADMRC152] | 103.1 ± 6.2; 3% | 92.5 ± 6.6; 4% | 115.4 ± 4.3; 3% | –
O=[N+]([O-])c1ccc2c(c1)no[n+]2[O-] [Compound J16] | 76.5 ± 1.0; 3% | 80.1 ± 9.2; 4% | 92.6 ± 4.9; 3% | –
[O-][n+]1onc2cc(F)c(F)cc21 [Compound J40] | 87.4 ± 1.6; 3% | 92.9 ± 5.1; 4% | 85.0 ± 1.4; 2% | –
COc1ccc(C2C(C(=O)c3ccc4c(c3)OCCO4)=C(O)C(=O)N2c2nc3ccc(C)cc3s2)cc1OC (centres unmarked) [ADMRC153] | 109.3 ± 4.7; 4% | 87.6 ± 6.0; 4% | 103.3 ± 3.2; 3% | –
COc1cc(CNCCCCCCNCc2ccc(O)c(OC)c2)ccc1O [APC1-121] | 92.9 ± 5.0; 4% | 95.0 ± 7.8; 4% | 91.1 ± 4.8; 3% | –

Structure (SMILES) | TcTryS Activity ± 2σn-1 (%) [1] | LiTryS Activity ± 2σn-1 (%) [2] | TbTryS Activity ± 2σn-1 (%) [3] | also measured
COc1cc(CNCCCCCCCCCCNCc2ccc(O)c(OC)c2)ccc1O [APC1-123] | 88.8 ± 6.5; 4% | 94.3 ± 8.2; 3% | 86.0 ± 5.5; 3% | –
[O-][n+]1onc2c(Cl)cc(Cl)cc21 [Compound J26] | 95.8 ± 1.1; 3% | 88.0 ± 1.0; 3% | 104.9 ± 5.7; 3% | –
COc1cc(CNCCCCCCCCNCc2ccc(O)c(OC)c2)ccc1O [APC1-122] | 94.5 ± 7.0; 4% | 102.8 ± 8.6; 3% | 91.6 ± 3.6; 3% | –
COc1cc(C2C(C(=O)c3ccc4c(c3)OCCO4)=C(O)C(=O)N2c2nc3ccc(Cl)cc3s2)ccc1O (centres unmarked) [ADMRC158] | 97.4 ± 6.1; 4% | – | – | remaining activity at 30 µM [1]: 97.4 ± 6.1%; activity at 30 µM [2]: 85.3 ± 8.7%; TbTryS Activity ± 2σn-1 (%) ([3]; 30 µM): 119.1 ± 4.6; 5 (0.88) %; activity at 30 µM [3]: 119%
[O-][n+]1onc2cc(Cl)c(Cl)cc21 [Compound J13] | 84.9 ± 4.4; 3% | 102.2 ± 7.8; 3% | 88.9 ± 2.7; 3% | –
O=C(C1=C(O)C(=O)N(c2nc3ccccc3s2)C1c1ccc(F)cc1)c1ccc2c(c1)OCCO2 (centres unmarked) [ADPKN161] | 90.8 ± 5.8; 4% | – | – | remaining activity at 30 µM [1]: 90.8 ± 5.8%; activity at 30 µM [2]: 83.5 ± 9.2%; activity at 30 µM [3]: 127%
c1ccc(CNCCCCCCCCCCNCc2ccccc2)cc1 [APC1-113] | 88.5 ± 6.6; 3% | 86.9 ± 6.3; 3% | 89.5 ± 3.6; 3% | –
COc1cc(CNCCCNCc2ccc(OCc3ccccc3)c(OC)c2)ccc1OCc1ccccc1 [APC1-79] | 63.3 ± 2.7; 2% | 72.1 ± 3.4; 4 (1.27) % | 66.0 ± 2.9; 4% | –
COc1ccc(C2C(C(=O)c3ccc(OC)c(OC)c3)=C(O)C(=O)N2c2nc3ccc(Cl)cc3s2)cc1 (centres unmarked) [ADPKN163] | 113.6 ± 3.4; 4% | 82.3 ± 7.7; 3% | 88.0 ± 5.0; 4% | –
Cc1ccc(CNCCCCCCCCNCc2ccc(C)cc2)cc1 [EAP1-45] | 92.3 ± 4.5; 4% | 91.9 ± 2.7; 3% | 78.4 ± 0.6; 3% | –
Cc1cc2no[n+]([O-])c2cc1C [Compound J11] | 86.4 ± 2.9; 4% | 103.6 ± 10.4; 3% | 88.8 ± 5.8; 4% | –
COc1ccc(C2C(C(=O)c3ccc4c(c3)OCCO4)=C(O)C(=O)N2c2nc3ccc(Cl)cc3s2)cc1 (centres unmarked) [AD84] | 98.7 ± 5.1; 4% | – | – | remaining activity at 30 µM [1]: 98.7 ± 5.1%; activity at 30 µM [2]: 82.1 ± 4%; TbTryS Activity ± 2σn-1 (%) ([3]; 30 µM): 119.0 ± 6.3; 8 (0.95) %; activity at 30 µM [3]: 119%
O=C(C1=C(O)C(=O)N(c2nc3ccc(Cl)cc3s2)C1c1ccccc1)c1ccc2c(c1)OCCO2 (centres unmarked) [ADMRC159] | 97.2 ± 7.8; 2% | 64.1 ± 2.7; 4% | 91.7 ± 6.5; 3% | % LiTryS inhibition ± 2σn-1 [2]: ~35%
Cc1ccc2c(c1)no[n+]2[O-] [Compound J10] | 92.6 ± 10.8; 3% | 84.7 ± 10.5; 4% | 92.7 ± 3.4; 3% | –
COc1cc(CNCCCNCc2ccc(O)c(OC)c2)ccc1O [APC1-82] | 92.9 ± 5.6; 4% | 84.9 ± 0.9; 4% | 88.1 ± 4.4; 3% | –
Fc1ccc(CNCCCCCCCCCCCCNCc2ccc(F)cc2)cc1 [EAP1-69] | 56.3 ± 3.6; 3% | 63.2 ± 5.0; 4% | 81.4 ± 5.6; 4 (1.39) % | % TcTryS inhibition ± 2σn-1 [1]: ~ 50%
CCNC(=S)Nc1nc2nc(N)ncc2cc1-c1ccc2c(c1)OCO2 [ZEA41] | – | – | – | inhibition at 30 µM [1]: 50%; inhibition at 30 µM [2]: 13.6 ± 3.4%; activity at 30 µM [2]: 86.4%; inhibition at 30 µM ([3]; read-out: % TbTryS inhibition ± 2σn-1): 20.9 ± 4.4%; activity at 30 µM [3]: 79.1%
Fc1ccc(CNCCCCCCCCNCc2ccc(F)cc2)cc1 [EAP1-39] | 96.0 ± 4.0; 4% | 69.6 ± 5.5; 4% | 85.7 ± 2.0; 3% | –
c1ccc(COc2ccc(CNCCCCCCCCNCc3ccc(OCc4ccccc4)cc3)cc2)cc1 [APC1-109] | 66.2 ± 10.9; 2% | 72.2 ± 6.2; 4% | – | –
CN1CCN(CCCN2c3ccccc3Sc3ccc(Cl)cc32)CC1 [prochlorperazine, reference compound] | – | – | – | inhibition of TcTryS [1]: none of the TryS was inhibited; reduction of TcTryS activity [1]: 34%
